The values below come from ChEMBL document CHEMBL1201862, “PubChem BioAssay data set” (2004).

SMILES strings stand for the structures.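 Five compound concentrations were applied to cells in 96-well plates for 48 hours; endpoints were derived by simple linear interpolation of the resulting dose-response curve. At the GI50, growth is halved.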 Calls of active or inactive are those of the source. Cut-off read from the data, not from the text of the source: active = GI50 up to about 1.1 µM and inactive = higher.

Holding throughout (experiment): NCI tumour cell line growth inhibition, 48 h
Assay [1] deals with EKVX.
For assay [2], the system named is A498.
In assay [3] the test system is HOP-92.
Assay [4] deals with RPMI-8226.
The test system of assay [5] is SNB-19.
Assay [6] concerns A549.
Assay [7] has as its system SW-620.
Assay [8] deals with CCRF-CEM.
Assay [9] deals with HCT-15.
Assay [10] concerns SK-MEL-28.
Assay [11] deals with NCI/ADR-RES.
Assay [12] deals with OVCAR-3.
Assay [13] relates to DU-145.
Assay [14] concerns HCT-116.
The test system of assay [15] is MDA-MB-231.
Assay [16] deals with NCI-H522.
Assay [17] deals with SNB-75.
Assay [18] concerns MDA-MB-435.
In assay [19] the test system is HT-29.
Assay [20] concerns SR.

As to `Nc1ccn(C2OC(COC(=O)C34CC5CC(CC(C5)C3)C4)C(O)C2O)c(=O)n1` (stereo not drawn), the GI50 in assay [1] was > 100 µM (inactive); in assay [2], > 45.5 µM (inactive); in [3], > 100 µM (inactive); in assay [4], > 100 µM (inactive); in assay [5] it was > 79.8 µM (inactive); in assay [6], 0.773 µM (active). The GI50 in assay [7] is > 100 µM (inactive); in assay [8], 0.101 µM (active); in assay [9], greater than 70.6 µM; in [10], 52.4 µM (inactive); in [11], > 100 µM (inactive); in assay [12], > 100 µM (inactive). Moreover, the GI50 in assay [13] is > 100 µM (inactive); in assay [14] it was 2.75 µM (inactive); in [15], > 100 µM (inactive); in assay [16] it was 10.7 µM (inactive); in assay [17], > 100 µM (inactive); in assay [18] it was > 100 µM (inactive). Further, in [19], the GI50 was > 57.5 µM (inactive).

Turning to `COc1c(C(=O)CC2c3c(cc4oc(C)cc(=O)c4c3OC)OC(=N)C2c2nc3ccccc3[nH]2)c(O)c(OC)c2occc12` (stereo not drawn), the GI50 in [1], in assay [2], in assay [3], in assay [4], in assay [5] and in assay [6] was > 100 µM (inactive) throughout. In addition, the GI50 in [7] is > 100 µM (inactive); in [8] it was > 100 µM (inactive); in assay [9], greater than 100 µM; in assay [10] it was > 100 µM (inactive); in [11], > 100 µM (inactive); in assay [12] it was > 100 µM (inactive). In addition, the GI50 in assay [13], in [14], in [15], in [16], in assay [17] and in assay [18] was > 100 µM (inactive) throughout. Moreover, in assay [19], the GI50 was > 100 µM (inactive).

In the case of `O=C(OC(=C(c1ccccc1)c1ccccc1)N1CCCC1=S)C(c1ccccc1)c1ccccc1`, the GI50 was > 10 µM (inactive) in assay [1]; 8.63 µM (inactive) in assay [2]; 7.55 µM (inactive) in [4]; > 10 µM (inactive) in assay [5]; 4.67 µM (inactive) in [6]; > 10 µM (inactive) in assay [7]. Further, the GI50 in assay [8] is 3.94 µM (inactive); in assay [9] it was 4.13 µM; in [10], > 10 µM (inactive); in assay [20], > 10 µM (inactive); in [11], 5.87 µM (inactive); in assay [12], 7.6 µM (inactive). Moreover, the GI50 is > 10 µM (inactive) in assay [13]; 4.12 µM (inactive) in [14]; 7.82 µM (inactive) in assay [15]; 4.91 µM (inactive) in [17]; > 10 µM (inactive) in assay [18]; 4.42 µM (inactive) in [19].

As for `Cc1ccc(-n2cnc3c(N)nc(N)nc32)cc1`, the GI50 in assay [1] was 81.5 µM (inactive); in [2] it was > 100 µM (inactive); in assay [3], > 100 µM (inactive); in [4], > 100 µM (inactive); in [5], > 100 µM (inactive); in [6], 69.5 µM (inactive). Besides, the GI50 in assay [7] was > 100 µM (inactive); in assay [8], 43.1 µM (inactive); in assay [9], greater than 100 µM; in [10], > 100 µM (inactive); in [11], > 100 µM (inactive); in assay [12], > 100 µM (inactive). In addition, the GI50 in assay [13] is > 100 µM (inactive); in [14], > 100 µM (inactive); in [15] it was > 100 µM (inactive); in assay [16], > 100 µM (inactive); in assay [17] it was 1.53 µM (inactive); in assay [18], > 100 µM (inactive). In addition, in assay [19], the GI50 is > 100 µM (inactive).

For `CC(=O)NCCCCN(CCCNC(C)=O)C(=O)OCc1ccccc1`, the GI50 in [1], in assay [2], in assay [3], in assay [4], in assay [6] and in assay [7] was > 100 µM (inactive) in each case. In addition, the GI50 in assay [8] was > 100 µM (inactive); in assay [9], greater than 100 µM; in [10], > 100 µM (inactive); in [11], > 100 µM (inactive); in assay [12], > 100 µM (inactive); in [13], > 100 µM (inactive). The GI50 in assay [14] is > 100 µM (inactive); in assay [15] it was > 100 µM (inactive); in [16] it was > 100 µM (inactive); in assay [17], 19.1 µM (inactive); in assay [18], > 100 µM (inactive); in [19], > 100 µM (inactive).

Regarding `CN(C(=O)Cc1cc(Cl)c(Cl)cc1NC(=O)CCCN)[C@H]1CCCC[C@@H]1N1CCCC1`, the GI50 in assay [1] was 45.1 µM (inactive); in assay [2], 17.3 µM (inactive); in assay [4], > 100 µM (inactive); in [5] it was 19.8 µM (inactive); in assay [6], 29.5 µM (inactive); in [7], 28.6 µM (inactive). In addition, the GI50 in [9] was greater than 100 µM; in assay [10], 17.1 µM (inactive); in assay [20], 34.8 µM (inactive); in assay [11], > 100 µM (inactive); in assay [12], > 100 µM (inactive); in assay [13] it was > 100 µM (inactive). Further, the GI50 is 29.9 µM (inactive) in assay [14]; 28.3 µM (inactive) in [15]; 15.8 µM (inactive) in assay [16]; 16.4 µM (inactive) in assay [18]; 20.5 µM (inactive) in assay [19].

On to `O=P1(C(O)/C=C/c2ccccc2)N(Cc2ccccc2)[C@@H]2CCCC[C@H]2N1Cc1ccccc1` (stereo partly drawn), for which the GI50 in [1] is 6.7 µM (inactive); in [2], 3.02 µM (inactive); in assay [3] it was 2.7 µM (inactive); in assay [4], 2.14 µM (inactive); in [5], 6.22 µM (inactive); in assay [6], 4.62 µM (inactive). The GI50 was 6.87 µM (inactive) in [7]; 5.19 µM (inactive) in assay [8]; 6.14 µM in assay [9]; 11.2 µM (inactive) in assay [10]; 9.53 µM (inactive) in assay [11]; 6.64 µM (inactive) in assay [12]. Also, the GI50 is 12.9 µM (inactive) in [13]; 3.54 µM (inactive) in [14]; 10.8 µM (inactive) in assay [15]; 2.42 µM (inactive) in assay [16]; 12 µM (inactive) in assay [17]; 3.67 µM (inactive) in assay [18]. Further, in [19], the GI50 was 3.67 µM (inactive).

`COc1c2nc(CCl)n(C)c(=O)c2c(OC)c2c(=O)n(C)c(CCl)nc12`: the GI50 in assay [1] was 3.31 µM (inactive); in [2] it was 2.33 µM (inactive); in assay [3] it was > 100 µM (inactive); in assay [4], 0.303 µM (active); in assay [5], 2.11 µM (inactive); in assay [6], 3.08 µM (inactive). For the same compound, the GI50 in assay [7] is 1.1 µM (active); in assay [8], 0.354 µM (active); in [9] it was 1.48 µM; in assay [10], 1.85 µM (inactive); in [11], 2.49 µM (inactive); in assay [12], 1.84 µM (inactive). Also, the GI50 in assay [13] is 3.4 µM (inactive); in assay [14] it was 1.11 µM (active); in assay [15], 1.55 µM (inactive); in assay [16], 1.34 µM (inactive); in [17] it was 0.719 µM (active); in assay [18] it was 2.11 µM (inactive). In [19], the GI50 was 1.3 µM (inactive).
